For 13 compounds, IC50 results are on record in patent US20260028365A1 (BIOGEN MA INC., priority 2022, published 2026).

Chain of JH2 domain of human Tyk2 (P29597 575-876): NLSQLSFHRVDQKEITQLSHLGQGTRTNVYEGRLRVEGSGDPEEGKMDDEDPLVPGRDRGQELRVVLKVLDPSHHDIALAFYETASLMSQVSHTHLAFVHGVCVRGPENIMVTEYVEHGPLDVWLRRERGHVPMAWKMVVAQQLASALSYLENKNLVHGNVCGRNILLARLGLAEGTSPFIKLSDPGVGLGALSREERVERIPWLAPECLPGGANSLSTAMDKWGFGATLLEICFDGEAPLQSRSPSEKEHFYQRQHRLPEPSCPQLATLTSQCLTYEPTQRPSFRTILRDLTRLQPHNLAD

One assay addresses JH2 domain of human Tyk2 (Homo sapiens (Human), UniProt P29597). Kind of assay: JH2 Biochemical Assay (TR-FRET probe displacement). The class given is binding. Conditions: JH2 domain of human Tyk2, TR-FRET probe displacement. The protocol: The inhibitory potency of compounds of the disclosure against the kinase activity of recombinantly generated JH2 domain of human Tyk2 was evaluated in a plate-based assay using a TR-FRET assay platform. Briefly, 2 nM of recombinant JH2 domain [10×His-tagged TYK2 JH2 domain (amino acid 575-876)] was combined with 2 nM probe ((S)-6-amino-9-(2-carboxy-4-((1-(3-(8-methyl-5-(methylamino)-8H-imidazo[4,5-d]thiazolo[5,4-b]pyridin-2-yl)phenyl)ethyl)carbamoyl)phenyl)-3-iminio-5-sulfo-3H-xanthene-4-sulfonate), 0.1 nM Tb-labeled anti-His antibody, and compounds of disclosure for 60 minutes. Compounds are tested at either 10 μM or 1 μM top concentration, 10 points of 3-fold dilution. The TR-FRET signal inversely correlates to the amount of probe displaced by compounds and signal was calculated by taking the ratio of fluorescence at 520 nm and 495 nm. The data was normalized and the percent activity versus log concentration of compound was fitted with a 4-parameter logistic model to generate IC50 curves.
On to `COc1cnc(NC(C)=O)cc1Nc1cc(-c2cc(C)c3nc(C)cn3c2)nc(C(C)(F)F)n1` [Example 403, N-(4-((2-(1,1-difluoroethyl)-6-(2,8-dimethylimidazo[1,2-a]pyridin-6-yl)pyrimidin-4-yl)amino)-5-methoxypyridin-2-yl)acetamide], for which the IC50 was ≤ 0.01 µM.

With `CC(=O)Nc1cc(Nc2cc(C)nc(C(C)(F)F)n2)c(N(C)C)cn1` [Example 725, N-(4-((2-(1,1-difluoroethyl)-6-methylpyrimidin-4-yl)amino)-5-(dimethylamino)pyridin-2-yl)acetamide], the IC50 was in the range of 0.1 to 1 µM.

With `COCC12CC(c3nc(C)cc(Nc4cc(NC(C)=O)ncc4-c4ccn(C)n4)n3)(CO1)C2` [Example 561, N-(4-((2-(1-(methoxymethyl)-2-oxabicyclo[2.1.1]hexan-4-yl)-6-methylpyrimidin-4-yl)amino)-5-(1-methyl-1H-pyrazol-3-yl)pyridin-2-yl)acetamide], the IC50 was in the range of 0.01 to 0.1 µM.

Turning to `CC(=O)Nc1cc(Nc2ccnc(C(C)(F)F)n2)c(-n2cnc(C)n2)cn1` [Example 734, N-(4-((2-(1,1-difluoroethyl)pyrimidin-4-yl)amino)-5-(3-methyl-1H-1,2,4-triazol-1-yl)pyridin-2-yl)acetamide], the IC50 lay in the range of 0.1 to 1 µM.

On to `COc1cnc(NC(C)=O)cc1Nc1cc(-c2cc(C)c3nn(C)cc3c2)nc(C(C)(F)F)n1` [Example 400, N-(4-((2-(1,1-difluoroethyl)-6-(2,7-dimethyl-2H-indazol-5-yl)pyrimidin-4-yl)amino)-5-methoxypyridin-2-yl)acetamide], for which the IC50 is ≤ 0.01 µM.

`CC(=O)Nc1cc(Nc2cc(C)nc(C(C)(F)F)n2)c(-n2cnc(C)n2)cn1` [Example 735, N-(4-((2-(1,1-difluoroethyl)-6-methylpyrimidin-4-yl)amino)-5-(3-methyl-1H-1,2,4-triazol-1-yl)pyridin-2-yl)acetamide] came in with an IC50 of 0.01 to 0.1 µM.

Staying with this assay, now noted: TR-FRET probe displacement, JH2 domain of human Tyk2.
Turning to `CC(=O)Nc1cc(Nc2cc(C)nc(C(C)(F)F)n2)c(OC[C@]23CC[C@](C)(CC2)CO3)cn1` [Example 347, N-(4-((2-(1,1-difluoroethyl)-6-methylpyrimidin-4-yl)amino)-5-(((1s,4s)-4-methyl-2-oxabicyclo[2.2.2]octan-1-yl)methoxy)pyridin-2-yl)acetamide], the IC50 is ≤ 0.01 µM.

`CC(=O)Nc1cc(Nc2ccnc(C(C)(F)F)c2)c(-c2cc(C)ncn2)cn1` [Example 199, N-(4-((2-(1,1-difluoroethyl)pyridin-4-yl)amino)-5-(6-methylpyrimidin-4-yl)pyridin-2-yl)acetamide]: the IC50 is 0.01 to 0.1 µM.

For `CC(=O)Nc1cc(Nc2cc(C)nc(C(C)(F)F)n2)c(-c2cc(C(C)(C)C#N)ncn2)cn1` [Example 241, N-(5-(6-(2-cyanopropan-2-yl)pyrimidin-4-yl)-4-((2-(1,1-difluoroethyl)-6-methylpyrimidin-4-yl)amino)pyridin-2-yl)acetamide], the IC50 is 0.1 to 1 µM.

`CCOc1cnc(NC(C)=O)cc1Nc1cc(C(C)(F)F)ncn1` [Example 33, N-(4-((6-(1,1-difluoroethyl)pyrimidin-4-yl)amino)-5-ethoxypyridin-2-yl)acetamide] came in with an IC50 of 0.1 to 1 µM.

Consider `CC(=O)Nc1cc(Nc2cc(C)nc(C(C)(F)F)n2)c(-c2cc(N3CCN(C)CC3)ncn2)cn1` [Example 248, N-(4-((2-(1,1-difluoroethyl)-6-methylpyrimidin-4-yl)amino)-5-(6-(4-methylpiperazin-1-yl)pyrimidin-4-yl)pyridin-2-yl)acetamide], for which the IC50 is 0.01 to 0.1 µM.

As to `CC(=O)Nc1cc(Nc2cc(C)nc(C(C)(F)F)n2)c(-c2nc3c(s2)CN(CC#N)CC3)cn1` [Example 285, N-(5-(5-(cyanomethyl)-4,5,6,7-tetrahydrothiazolo[5,4-c]pyridin-2-yl)-4-((2-(1,1-difluoroethyl)-6-methylpyrimidin-4-yl)amino)pyridin-2-yl)acetamide], the IC50 is ≤ 0.01 µM.

Take `CC(=O)Nc1cc(Nc2cc(C)nc(C(C)(F)F)n2)c(C(C)C)cn1` [Example 44, N-(4-((2-(1,1-difluoroethyl)-6-methylpyrimidin-4-yl)amino)-5-isopropylpyridin-2-yl)acetamide]: the IC50 fell in the range of 0.01 to 0.1 µM.
